Values quoted from earlier work in patent US11583521B2, “Long-acting injection dosage form of beta 3 adrenoreceptor agonists” (Jubilant Pharma Holdings Inc., priority 2020, dated 2023).

How the values were obtained:
[1] = neutral to acidic pH
[2] = presence of food in the GI tract

Which solubility in water [1] does the source give for `Nc1nc(CC(=O)Nc2ccc(CCNC[C@H](O)c3ccccc3)cc2)cs1` [Mirabegron, (R)-2-(2-aminothiazol-4-yl)-4′-{2-[(2-hydroxy-2 phenylethyl)amino]ethyl}acetanilide] here?
The solubility in water was “soluble in water between neutral to acidic pH”.

What about the “bioavailability, effect of food” value [2] of the same compound?
The value was “affected by the presence of food in the GI (Gastro-Intestinal) tract”.
